Laboratory results as given in article PMC11937972 (JACS Au, 2025).
Like-named read-outs stand apart in the source and are kept apart here. Each block holds one molecule with its values, some of them ahead of it.

Legend:
[1] = molecular target: T1, URAT1^EM (humanized rat URAT1, rURAT1-3M) (Rattus norvegicus, UniProt Q3ZAV1, M481I/N35S/Y365F); assay: cell-based
T1 sequence (Q3ZAV1 1-553 N35S/Y365F/M481I): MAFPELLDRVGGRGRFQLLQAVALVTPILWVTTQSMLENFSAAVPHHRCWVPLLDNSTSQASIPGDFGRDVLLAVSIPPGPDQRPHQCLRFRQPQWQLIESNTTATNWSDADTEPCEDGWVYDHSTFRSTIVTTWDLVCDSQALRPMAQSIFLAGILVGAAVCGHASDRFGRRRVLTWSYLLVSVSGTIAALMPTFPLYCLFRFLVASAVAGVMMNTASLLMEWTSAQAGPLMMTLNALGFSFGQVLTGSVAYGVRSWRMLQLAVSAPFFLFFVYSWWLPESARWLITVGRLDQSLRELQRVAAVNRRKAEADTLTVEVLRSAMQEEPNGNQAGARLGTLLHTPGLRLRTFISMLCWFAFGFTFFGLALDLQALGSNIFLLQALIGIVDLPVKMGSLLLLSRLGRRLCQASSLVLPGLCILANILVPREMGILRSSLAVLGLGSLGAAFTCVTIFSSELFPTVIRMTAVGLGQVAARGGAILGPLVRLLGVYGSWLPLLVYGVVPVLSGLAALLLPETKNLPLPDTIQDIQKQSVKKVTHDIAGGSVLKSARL

human URAT1 (hURAT1) = molecular target: T2, human URAT1 (hURAT1) (Homo sapiens, UniProt Q96S37); assay: inhibition of urate uptake in transfected HEK293T cells; assay type: cell-based
T2 sequence (Q96S37 1-553): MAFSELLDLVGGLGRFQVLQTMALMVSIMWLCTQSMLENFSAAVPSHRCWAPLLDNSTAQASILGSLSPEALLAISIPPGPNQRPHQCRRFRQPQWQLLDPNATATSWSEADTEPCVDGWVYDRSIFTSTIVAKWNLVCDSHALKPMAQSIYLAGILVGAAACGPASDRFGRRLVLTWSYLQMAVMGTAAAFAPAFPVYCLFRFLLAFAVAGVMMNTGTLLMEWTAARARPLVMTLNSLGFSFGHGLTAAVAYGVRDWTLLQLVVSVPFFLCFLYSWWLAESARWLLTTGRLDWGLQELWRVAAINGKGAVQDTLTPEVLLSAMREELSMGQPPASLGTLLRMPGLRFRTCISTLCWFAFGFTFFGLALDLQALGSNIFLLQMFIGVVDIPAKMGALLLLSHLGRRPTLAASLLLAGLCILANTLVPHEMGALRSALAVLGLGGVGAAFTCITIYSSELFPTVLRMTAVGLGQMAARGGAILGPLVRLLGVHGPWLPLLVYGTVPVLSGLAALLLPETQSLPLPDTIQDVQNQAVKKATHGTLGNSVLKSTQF

[2] = molecular target: T1, URAT1^EM (humanized rat URAT1, rURAT1-3M); assay: cryo-EM structure at […] Å; assay type: cell-based
[3] = substrate: O=c1[nH]c(=O)c2[nH]c(=O)[nH]c2[nH]1; assay: concentration-dependent urate uptake in HEK293T cells, Km; assay type: cell-based, Rattus norvegicus
[4] = substrate: O=c1[nH]c(=O)c2[nH]c(=O)[nH]c2[nH]1; assay: as above; assay type: cell-based, Homo sapiens

IC50 [1]: 0.425 µM
Molecule: CCc1oc2ccccc2c1C(=O)c1cc(Br)c(O)c(Br)c1 [BEN, benzbromarone]

IC50 [2]: 0.15 µM
Molecule: CC(C)(Sc1ccncc1-c1ccc(C#N)c2ccccc12)C(=O)O [VER, verinurad]
IC50 (human URAT1 (hURAT1)): Inhibition of human URAT1 WT and variants by verinurad.

B1: URAT1^EM (humanized rat URAT1, rURAT1-3M) (Rattus norvegicus; M481I/N35S/Y365F) (protein)
chain: T1 sequence (Q3ZAV1 1-553 N35S/Y365F/M481I)
Km [3]: 203 µM

B2: human URAT1 (hURAT1) (Homo sapiens) (protein)
chain: T2 sequence (Q96S37 1-553)
Km [4]: 80 µM
